In series [1] the test system is human foreskin fibroblast HFF-1 (ATCC-SCRC-1041). The series is described as follows: Cytotoxicity, MTT reduction assay. The class given is cell-based. To be noted: HFF-1, MTT; for IC50: 24 h, tested 3.9–500 μM. How it is done: The cytotoxicity of arene-ruthenium(II) complexes 3a–3d was determined using the MTT (3-(4,5-dimethylthiazol-2-yl)-2,5-diphenyltetrazolium bromide; Sigma, St. Louis, MO, USA) reduction assay and a human foreskin fibroblast HFF-1 culture (ATCC-SCRC-1041) (LGC Standards Sp. z o.o., Poland) at a final concentration range of 3.9–500 µM. The HFF-1 cells were cultured in Dulbecco’s Modified Eagle’s Medium (DMEM; Sigma, St. Louis, MO, USA) with 15% fetal bovine serum (FBS; BioWest, Nuaillé, France) and penicillin/streptomycin (100 × stock solution; BioWest, Nuaillé, France), 1 × 10^6 cell/mL (100 µL/well) in 96-well tissue culture plates (Nunc, Roskilde, Denmark) for 24 h at 37 °C/5% CO2. The cells were then exposed to arene-ruthenium(II) complexes for 24 h at 37 °C. The control (untreated) cells were exposed to culture medium alone or culture medium containing 2% DMSO to exclude the effect of the solvent used to prepare the stock solutions of the tested complexes. Next, fresh culture medium (100 µL/well) and MTT (1.5 mg/mL, 50 µL/well) were added, and cells were incubated for two hours under the above conditions. MTT was […] blue formazan crystals produced by the metabolically active cells. Finally, the MTT solution was removed and replaced with 100 µL/well of 20% sodium dodecyl sulfate (SDS; Sigma, St. Louis, MO, USA) for 24 h (room temperature) to dissolve the blue formazan. Based on the absorbance (λ = 550 nm) of tested and control cells (100% viability), the percentage of cell viability after exposure was calculated. For each sample, the experiment was performed twice.
(Tetrazolium assays rely on reduction of a dye to a coloured formazan, in cell work by metabolically active cells.)

For series [2], the system named is S. epidermidis ATCC 12228. As to the kind of experiment: Synergy with oxacillin and vancomycin, partial checkerboard broth microdilution. Type of series: cell-based, Staphylococcus epidermidis. Conditions: S. epidermidis ATCC 12228; for FIC (Oxa) / FIC (Van): MIC antibiotic in combination/MIC antibiotic alone; for MIC Oxa in Combination: oxacillin with the complex at ½ MIC (NH4PF6 250 µg/mL); for MIC Van in Combination: vancomycin with the complex at ½ MIC (NH4PF6 250 µg/mL). (In general: In broth dilution the organism is exposed to a series of concentrations in liquid medium.)

The subject of series [3] is Staphylococcus aureus ATCC 29213. As to the kind of experiment: MIC and MBC/MFC by broth microdilution. Conditions: S. aureus ATCC 29213. Type of series: cell-based. How it is done: (§1) Reference strains of bacteria and fungi: Staphylococcus aureus ATCC 29213, Staphylococcus epidermidis ATCC 12228, Enterococcus faecalis ATCC 29212, Pseudomonas aeruginosa ATCC 25619, Proteus vulgaris ATCC 8427, and Candida albicans ATCC 10231 (Manassas, VA, USA) were used to screen the antimicrobial activity of the arene-ruthenium(II) complexes 3a-3d, NH4PF6 and selected antibiotics. The microorganisms were grown for 24 h (bacteria) or 48 h (fungi) in 35-37 °C in tryptic-soy agar (TSA; BTL Sp. z o.o., Łódź, Poland) or Sabouraud's dextrose agar (SDA; BTL Sp. z o.o., Łódź, Poland) according to nutritional requirements. Microbial suspensions at a density of about 5 × 10^5 CFU/mL were prepared in Mueller-Hinton broth (MHB; BTL Sp. z o.o., Łódź, Poland) or RPMI-1640 medium (Sigma, St. Louis, MO, USA) for bacteria and fungi, respectively. […] Louis, MO, USA). Stock solutions of the lyophilized compounds were freshly prepared in 100% DMSO (POCh, Gliwice, Poland) for the complexes, or in water for injection (Sigma, St. Louis, MO, USA) in the case of antibiotics. […] MIC and MBC/MFC were defined as the lowest concentrations of the compounds inhibiting bacterial/fungal growth or able to kill added microbial inoculum, respectively, and were evaluated as described by […] et al.. Experiments were carried out in duplicate.

The subject of series [4] is Proteus vulgaris ATCC 8427. The series is described as follows: MIC and MBC/MFC by broth microdilution. Type of series: cell-based. To be noted: P. vulgaris ATCC 8427. On the procedure: as §1
Series [5] relates to Enterococcus faecalis ATCC 29212. As to the kind of experiment: MIC and MBC/MFC by broth microdilution. Type of series: cell-based. Conditions: E. faecalis ATCC 29212. On the procedure:
as §1

In series [6] the test system is Staphylococcus epidermidis ATCC 12228. As to the kind of experiment: MIC and MBC/MFC by broth microdilution. Type of series: cell-based. To be noted: S. epidermidis ATCC 12228. How it is done: as §1
Series [7] concerns Pseudomonas aeruginosa ATCC 25619. As to the kind of experiment: MIC and MBC/MFC by broth microdilution. The class given is cell-based. To be noted: P. aeruginosa ATCC 25619. On the procedure: as §1
For series [8], the system named is Candida albicans ATCC 10231. As to the kind of experiment: MIC and MBC/MFC by broth microdilution. Type of series: cell-based. Conditions: C. albicans ATCC 10231. On the procedure:
as §1

Series [9] deals with S. aureus ATCC 29213. The series is described as follows: Synergy with oxacillin and vancomycin, partial checkerboard broth microdilution. The class given is cell-based, Staphylococcus aureus. Conditions: S. aureus ATCC 29213; for FIC (Oxa) / FIC (Van): MIC antibiotic in combination/MIC antibiotic alone; for MIC Oxa in Combination: oxacillin with the complex at ½ MIC (NH4PF6 250 µg/mL); for MIC Van in Combination: vancomycin with the complex at ½ MIC (NH4PF6 250 µg/mL).

Series [10] relates to Supercoiled plasmid pUC57 DNA. The series is described as follows: Cleavage of pUC57 DNA, agarose gel electrophoresis. The class given is biochemical. To be noted: pUC57, 100, 200 and 300 µM. How it is done:
DNA supercoiling plays a key role in gene expression and genome organization. The agarose gel electrophoresis assay was used to check whether the tested complexes 3a–3c are able to cleave DNA. Supercoiled plasmid pUC57 DNA (4634 bp); Thermo Scientific, ABO Sp. z o.o., Gdansk, Poland), was incubated with tested compounds (100, 200 and 300 µM). Next, loading buffer (1 μL) containing […] bromophenol blue, 0.25% xylene cyanol and 30% glycerol was added to allow the samples to be loaded into 1% w/v agarose gel. Electrophoresis was performed at 75 V in Tris-acetate- EDTA (TAE) buffer. The gel was stained using Midori green advance DNA stain (Genetics, ABO Sp. z o.o., Gdansk, Poland), and visualised under UV light with the BioRad Gel Doc 2000 system using LABWORK software (Hercules, California, USA). All experiments were carried out in triplicate under the same conditions.

Values joined by “and” are separate entries in the source; they are usually repeats but may differ in a detail not shown here. Identical values can stand only once.

On to `Cc1cc(C)[n+]2n1C(N)=[S+][Ru-]2[Cl].Cc1ccc(C(C)C)cc1.F[P-](F)(F)(F)(F)F` [Compound 3a], for which the “Concentration above which cytotoxicity was seen” value in [1] is reported as “above 250 μM”. In [1], the IC50 (commonly the concentration needed to halve the response being measured) is 380 µM and > 350 µM. In addition, the “FIC (Oxa)” value worked out at 0.06 in series [2] and 1 in series [9]. The “FIC (Van)” value in series [2] was found to be 0.03; in series [9] it was 1. Besides, the “MIC Oxa in Combination” value in [2] was determined as 0.015 mg/L; in [9], 0.250 mg/L. The “MIC Van in Combination” value in [2] is 0.015 mg/L; in series [9] it was 0.50 mg/L. The MBC/MFC is 62.5 mg/L in series [3]; more than 1000 mg/L in series [4]; 125 mg/L in [5]; 125 mg/L in [6]; more than 1000 mg/L in series [7]; more than 1000 mg/L in series [8]. Further, the MIC (commonly the lowest concentration that inhibits growth of the organism) is 62.5 mg/L in series [3]; more than 1000 mg/L in [4]; 125 mg/L in [5]; 125 mg/L in [6]; more than 1000 mg/L in series [7]; 500 mg/L in series [8]. Besides, the “Cleavage of plasmid DNA, in words” value in [10] is listed as “did not affect DNA structure”.
On to `CCc1cc(CC)[n+]2n1C(N)=[S+][Ru-]2[Cl].Cc1ccc(C(C)C)cc1.F[P-](F)(F)(F)(F)F` [Compound 3b], for which, in series [1], the “Concentration above which cytotoxicity was seen” value is listed as “above 250 μM”; the IC50 is 355 µM and > 350 µM. In series [2], the “Correlation with Oxa and Van (synergy), in words” value is “synergistic effect in all tested configurations”; the “FIC (Oxa)” value was 0.06; the “FIC (Van)” value is given as 0.03; the “MIC Oxa in Combination” value was found to be 0.015 mg/L. In addition, the “MIC Van in Combination” value in series [2] was determined as 0.015 mg/L. In [3], this compound displayed an MBC/MFC of 62.5 mg/L and an MIC of 62.5 mg/L. Besides, in series [4], the MBC/MFC is more than 1000 mg/L and the MIC is more than 1000 mg/L. In series [5], this compound yielded an MBC/MFC of 125 mg/L and an MIC of 62.5 mg/L. Also, in series [6], the MBC/MFC amounted to 62.5 mg/L and the MIC is 31.2 mg/L. Further, in series [7], the MBC/MFC was more than 1000 mg/L and the MIC is more than 1000 mg/L. For the same compound, in [8], the MBC/MFC was more than 1000 mg/L and the MIC was found to be 1000 mg/L. In addition, in series [9], the “Correlation with Oxa and Van (synergy), in words” value is “synergistic effects”; the “FIC (Oxa)” value is listed as 0.5; the “FIC (Van)” value is reported as 0.25; the “MIC Oxa in Combination” value is 0.125 mg/L. For the same compound, the “MIC Van in Combination” value in series [9] is 0.125 mg/L. Moreover, in [10], the “Cleavage of plasmid DNA, in words” value is recorded as “able to cut plasmid DNA”.
On to “[(η^6-p-cymene)Ru(1-[amino(thioxo)methyl]-5-hydroxy-3-phenyl-1H-pyrazole)PF6 [Compound 3c]”, for which, in series [1], the midpoint of inhibition, the IC50, lay at 264 µM. The “FIC (Oxa)” value in series [2] worked out at 0.06; in series [9], 1. Besides, the “FIC (Van)” value is 0.03 in series [2] and 1 in series [9]. Also, the “MIC Oxa in Combination” value in [2] came out at 0.015 mg/L; in [9] it was 0.250 mg/L. Further, the “MIC Van in Combination” value in series [2] amounted to 0.015 mg/L; in series [9] it was 0.50 mg/L. Also, the MBC/MFC was 31.2 mg/L in series [3]; more than 1000 mg/L in series [4]; 250 mg/L in series [5]; 31.2 mg/L in series [6]; more than 1000 mg/L in series [7]; more than 1000 mg/L in [8]. Besides, the MIC is 15.6 mg/L in [3]; more than 1000 mg/L in series [4]; less than 31.2 mg/L in series [5]; 31.2 mg/L in series [6]; more than 1000 mg/L in series [7]; more than 1000 mg/L in series [8]. In addition, in series [10], the “Cleavage of plasmid DNA, in words” value was “able to cut plasmid DNA”.

Values taken from publication PMC8781304, “Arene-Ruthenium(II) Complexes with Carbothiamidopyrazoles as a Potential Alternative for Antibiotic Resistance in Human” (Molecules, 2022).
